Here are results for 26 compounds from patent publication US7439266B2, “Malononitrile compound and use thereof” (Sumitomo Chemical Company, Limited, priority 2002, dated 2008).

The subject of one assay is Musca domestics. Nature of the assay: Test Example 4: filter paper with sucrose bait, female housefly imagoes. Format: in vivo, Musca domestica. The settings on record: 0.7 ml on filter paper with 30 mg sucrose, ten female imagoes, after 24 hours, read-out: rate of dead pests. How it is done: The formulation obtained according to Formulation Example 5 using the present invention compounds (1), (7), (13)-(17), (20), (28), (32), (36), (37), (39), (44)-(46), (53), (55), (57)-(62), (64)-(70) and (71) respectively, was diluted with water so that the active ingredient concentration came to 500 ppm to prepare a pesticidal solution for test.
On the bottom of a polyethylene cup having a diameter of 5.5 cm, a filter paper having the same diameter was laid, and 0.7 ml of the above pesticidal solution for test was added dropwise on the filter paper, followed by putting 30 mg of sucrose on it uniformly as a bait. Ten female Musca domestics imagoes were set free in the polyethylene cup and covered it with a lid. After 24 hours, the number of surviving Musca domestics was examined and the rate of dead pests was calculated.

The next assay deals with Culex pipiens pallens. The assay is described as follows: Test Example 6: last-instar mosquito larvae in treated water. Conditions: 24 h, read-out: rate of dead pests. In kind it is in vivo. As for the experimental part:
The formulation obtained according to Formulation Example 5 using the present invention compounds (7), (8)-(11), (14)-(16), (20), (21), (24)-(26), (28), (29), (31), (37)-(39), (44)-(47), (51), (53), (55), (57), (58), (60)-(67), (69), (70) and (71) respectively, was diluted with water so that the active ingredient concentration came to 500 ppm to prepare a pesticidal solution for test.
0.7 ml of above pesticidal solution for test was added to 100 ml of ion exchanged water (active ingredient concentration: 3.5 ppm). Twenty last-instar larvae of Culex pipiens pallens were set free in the solution. After one day, the number of surviving Culex pipiens pallens was examined and the rate of dead pests was calculated.

Another assay has as its system Blattella germanica. Nature of the assay: Test Example 5: filter paper with sucrose bait, male German cockroach imagoes. In kind it is in vivo. Conditions: 144 h, 0.7 ml on filter paper with 30 mg sucrose, two male imagoes, after 6 days, read-out: rate of dead pests. As for the experimental part: The formulation obtained according to Formulation Example 5 using the present invention compounds (1), (25), (28), (36), (39), (40), (44)-(46), (47), (57), (58), (64), (65) and (67) respectively, was diluted with water so that the active ingredient concentration came to 500 ppm to prepare a pesticidal solution for test.
On the bottom of a polyethylene cup having a diameter of 5.5 cm, a filter paper having the same diameter was laid, and 0.7 ml of the above pesticidal solution for test was added dropwise on the filter paper, followed by putting 30 mg of sucrose on it uniformly as a bait. Two male Blattalla germanica imagoes were set free in the polyethylene cup and covered it with a lid. After 6 days, the number of surviving Blattella germanica was examined and the rate of dead pests was calculated.

A further assay relates to Nilaparvata lugens. The assay is described as follows: Test Example 1: spray on rice plants, Nilaparvata lugens larvae, 2000 ppm. Format: in vivo. The settings on record: sprayed 20 ml/cup on rice plants, thirty first-instar larvae released, sixth day after release, 25° C. How it is done: The formulation obtained according to Formulation Example 5 using the present invention compound (74) and the reference compound (1) respectively, was diluted with water so that the active ingredient concentration came to 2000 ppm to prepare a pesticidal solution for test. At the same time, 50 grams of molding Bonsoru 2 (available from Sumitomo Chemical Co., Ltd.) was put into a polyethylene cup, and 10 to 15 seeds of rice were planted in the polyethylene cup. The rice plants were grown until the second foliage leaves developed and then cut into the same height of 5 cm. The pesticidal solution for test prepared above was sprayed at the rate of 20 ml/cup to these rice plants. After the pesticidal solution sprayed onto the rice plants were dried, they were put into a plastic cup for escape prevention of test pests, and thirty first-instar larvae of Nilaparvata lugens were set free on the rice plants, followed by covering the plastic cup with a lid. Then the plastic cup was left in a greenhouse (25° C.). On the sixth day after the release of larvae of Nilaparvata lugens, the number of parasitic Nilaparvata lugens on the rice plants was examined.

The mark [1] stands for this setting: 0.7 ml of 500 ppm solution in 100 ml water (active ingredient concentration: 3.5 ppm), twenty last-instar larvae, after one day.

The structures appear in SMILES notation. Like-named read-outs stand apart in the source and are kept apart here. Where only a bound is given, the exact number is not on record here.

With `CCOC(=O)C(C)C(C#N)(C#N)CCC(F)(F)F` (stereo not shown) [present invention compound (7), 2-[1-(ethoxycarbonyl)ethyl]-2-(3,3,3-trifluoropropyl)malononitrile], in the assay on Musca domestics, the pest or weed control at 500 ppm was at least 90%. The pest or weed control at 3.5 µg/mL in the assay with Culex pipiens pallens (setting [1]) was found to be 100%.
`N#CC(C#N)(CCC(F)(F)F)CC(=O)OC1CCCCC1` [present invention compound (20), 2-(cyclohexyloxycarbonylmethyl)-2-(3,3,3-trifluoropropyl)malononitrile]: the pest or weed control at 500 ppm with Musca domestics is at least 90%. In addition, the pest or weed control at 3.5 µg/mL in the assay with Culex pipiens pallens (setting [1]) came out at 100%.
Turning to `CC(C)(C)OC(=O)CC(C#N)(C#N)CCC#N` [present invention compound (21), 2-(tert-butoxycarbonylmethyl)-2-(2-cyanoethyl)malononitrile], in the assay on Culex pipiens pallens, the pest or weed control at 3.5 µg/mL is 100%.
On to `CC(CCl)CC(C#N)(C#N)CC(=O)OC(C)(C)C` (stereo not shown) [present invention compound (25), 2-(tert-butoxycarbonylmethyl)-2-(3-chloro-2-methylpropyl)malononitrile], for which the pest or weed control at 500 ppm with Blattella germanica was determined as 100%.
Consider `CCCCC(C#N)(C#N)CC(=O)OC(C)(C)C` [present invention compound (28), 2-(tert-butoxycarbonylmethyl)-2-butylmalononitrile], for which the pest or weed control at 500 ppm was at least 90% with Musca domestics and 100% with Blattella germanica. The pest or weed control at 3.5 µg/mL in the assay on Culex pipiens pallens (setting [1]) is 100%.
Consider `CCCCCC(C#N)(C#N)CC(=O)OC(C)(C)C` [present invention compound (29), 2-(tert-butoxycarbonylmethyl)-2-pentylmalononitrile], for which, in the assay with Culex pipiens pallens (setting [1]), the pest or weed control at 3.5 µg/mL amounted to 100%.
On the same count and under the same terms, in the case of `CC(C)CCC(C#N)(C#N)CC(=O)OC(C)(C)C` [present invention compound (31), 2-(tert-butoxycarbonylmethyl)-2-(3-methylbutyl)malononitrile] it was 100%.
In the case of `CCC(C)C(C#N)(C#N)CC(=O)OC(C)(C)C` (stereo not shown) [present invention compound (32), 2-(tert-butoxycarbonylmethyl)-2-(1-methylpropyl)malononitrile], the pest or weed control at 500 ppm in the assay with Musca domestics is at least 90%.
With `CC=CCC(C#N)(C#N)CC(=O)OC(C)(C)C` [present invention compound (36), 2-(tert-butoxycarbonylmethyl)-2-(2-butenyl)malononitrile], the pest or weed control at 500 ppm is at least 90% in the assay with Musca domestics and 100% in the assay with Blattella germanica.
With `CCCC(C#N)(C#N)CC(=O)OC(C)(C)C` [present invention compound (37), 2-(tert-butoxycarbonylmethyl)-2-propylmalononitrile], the pest or weed control at 500 ppm in the assay on Musca domestics is at least 90%.
As to `CCCCC(C#N)(C#N)C(C)C(=O)OC(C)(C)C` (stereo not shown) [present invention compound (39), 2-[1-(tert-butoxycarbonyl)ethyl]-2-butylmalononitrile], the pest or weed control at 500 ppm in the assay on Musca domestics is at least 90%; with Blattella germanica, 100%.
In the case of `CC(C)(C)OC(=O)CC(C#N)(C#N)CCC(F)=C(F)F` [present invention compound (40), 2-(tert-butoxycarbonylmethyl)-2-(3,4,4-trifluoro-3-butenyl)malononitrile], the pest or weed control at 500 ppm with Blattella germanica is 100%.
As to `CC(C)(C)SC(=O)CC(C#N)(C#N)CCC(F)(F)F` [present invention compound (47), 2-[(tert-butylthio)carbonylmethyl]-2-(3,3,3-trifluoropropyl)malononitrile], the pest or weed control at 500 ppm in the assay on Blattella germanica was found to be 100%.
Consider `CC(C)(C)OC(=O)CC(C#N)(C#N)CCCC(F)(F)F` [present invention compound (51), 2-(tert-butoxycarbonylmethyl)-2-(4,4,4-trifluorobutyl)malononitrile], for which the pest or weed control at 3.5 µg/mL with Culex pipiens pallens (setting [1]) stood at 100%.
Turning to `CC(C)(C)COC(=O)CC(C#N)(C#N)CCC(F)(F)F` [present invention compound (53), 2-[(2,2-dimethylpropoxy)carbonylmethyl]-2-(3,3,3-trifluoropropyl)malononitrile], in the assay with Musca domestics, the pest or weed control at 500 ppm is at least 90%. Moreover, the pest or weed control at 3.5 µg/mL with Culex pipiens pallens (setting [1]) was 100%.
With `CC(CCl)OC(=O)CC(C#N)(C#N)CCC(F)(F)F` (stereo not shown) [present invention compound (55), 2-[(2-chloro-1-methylethoxy)carbonylmethyl]-2-(3,3,3-trifluoropropyl)malononitrile], the pest or weed control at 500 ppm with Musca domestics is at least 90%. The pest or weed control at 3.5 µg/mL in the assay on Culex pipiens pallens (setting [1]) was determined as 100%.
Regarding `C#CC(C)(C)OC(=O)CC(C#N)(C#N)CCC(F)(F)F` [present invention compound (57), 2-[(1,1-dimethyl-2-propynyl)oxycarbonylmethyl]-2-(3,3,3-trifluoropropyl)malononitrile], the pest or weed control at 3.5 µg/mL with Culex pipiens pallens (setting [1]) amounted to 100%. The pest or weed control at 500 ppm in the assay with Blattella germanica amounted to 100%.
Take `C#CC(C)(CC)OC(=O)CC(C#N)(C#N)CCC(F)(F)F` (stereo not shown) [present invention compound (58), 2-((1-ethyl-1-methyl-2-propynyloxycarbonyl)methyl)-2-(3,3,3-trifluoropropyl)malononitrile]: in the assay with Culex pipiens pallens (setting [1]), the pest or weed control at 3.5 µg/mL was determined as 100%. The pest or weed control at 500 ppm in the assay with Blattella germanica stood at 100%.
For the compound `C#CC(C)(C)OC(=O)C(C)C(C#N)(C#N)CCC(F)(F)F` (stereo not shown) [present invention compound (64), 2-(1-[(1,1-dimethyl-2-propynyl)oxycarbonyl]ethyl)-2-(3,3,3-trifluoropropyl)malononitrile], the pest or weed control at 500 ppm in the assay on Blattella germanica amounted to 100%.
As to `C#CC(C)(CC)OC(=O)C(C)C(C#N)(C#N)CCC(F)(F)F` (stereo not shown) [present invention compound (65), 2-(1-[(1-ethyl-1-methyl-2-propynyl)oxycarbonyl]ethyl)-2-(3,3,3-trifluoropropyl)malononitrile], in the assay with Blattella germanica, the pest or weed control at 500 ppm worked out at 100%.
Still for that read-out and setting: in the case of `C=CC(C)(C)OC(=O)C(C)C(C#N)(C#N)CCC(F)(F)F` (stereo not shown) [present invention compound (67), 2-(1-[(1,1-dimethyl-2-propenyl)oxycarbonyl]ethyl)-2-(3,3,3-trifluoropropyl)malononitrile] it was 100%.
On to `CC(C)CC(C)OC(=O)C(C)C(C#N)(C#N)CCC(F)(F)F` (stereo not shown) [present invention compound (69), 2-(1-[(1,3-dimethylbutoxy)carbonyl]ethyl)-2-(3,3,3-trifluoropropyl)malononitrile], for which the pest or weed control at 3.5 µg/mL in the assay on Culex pipiens pallens (setting [1]) came to 100%.
For `CC(C(=O)OCC(C)(C)C)C(C#N)(C#N)CCC(F)(F)F` (stereo not shown) [present invention compound (70), 2-(1-[(2,2dimethylpropoxy)carbonyl]ethyl)-2-(3,3,3-trifluoropropyl)malononitrile], the pest or weed control at 3.5 µg/mL in the assay with Culex pipiens pallens (setting [1]) came out at 100%.
As for `COC(=O)C(C)C(C#N)(C#N)CCC(F)(F)F` (stereo not shown) [present invention compound (71), 2-[1-(methoxycarbonyl)ethyl]-2-(3,3,3-trifluoropropyl)malononitrile], the pest or weed control at 500 ppm with Musca domestics was at least 90%. Besides, in the assay on Culex pipiens pallens (setting [1]), the pest or weed control at 3.5 µg/mL turned out to be 100%.
In the case of `CCOC(=O)CC(C)(C#N)C#N` [present invention compound (74), 2-(ethoxycarbonylmethyl)-2-methylmalononitrile], the “number of parasitic Nilaparvata lugens” value in the assay on Nilaparvata lugens was at most 3.
As for `CCOC(=O)CCC(C#N)C#N` [reference compound (1), 2-[2-(ethoxycarbonyl)ethyl]malononitrile, reference compound], in the assay with Nilaparvata lugens, the “number of parasitic Nilaparvata lugens” value is listed as at least 20.
